In one data set the target is T1, purified tubulin (Sus scrofa, UniProt P02550+P02554).
T1 construct: purchased Cytoskeleton #BK006P
Nature of the data set: Tubulin polymerisation assay (CytoDYNAMIX Screen kit, absorbance at 340 nm). The format is biochemical. The note with it: for inhibition at 5 µM / % Inhibition of tubulin polymerization at 5 μM: 5 μM compound, 4 mg/ml tubulin; for inhibition at 5 µM: read-out: % Inhibition of tubulin polymerization at 5 μM; for IC50: tubulin polymerization. The method, then: The polymerization of purified tubulin was monitored spectrophotometrically by the change in absorbance at 340 nm using the CytoDYNAMIX Screen kit (#BK006P, Cytoskeleton) according to the instructions of the manufacturer. […] The absorbance was measured at 1 minute intervals for 60 minutes. The test compound was added to a 4 mg/ml tubulin solution containing 10% glycerol and 1 mM GTP in Buffer 1 (Buffer 1: 80 mM PIPES; 2 mM MgCl2; 0.5 mM EGTA, pH 6.9). Increased absorbance indicates increase in microtubule formation from tubulin heterodimers.

In data set [1] the test system is Endothelial cells (HUVEC). In words: Neovessels formation inhibition (capillary tube formation on Matrigel). The format is cell-based. The method, then: The capability of compounds to inhibit the formation of capillaries was evaluated in vitro. Twenty thousand Endothelial cells (HUVEC) were placed on a Matrigel matrix and allowed to form capillary tubes in the presence or absence of the compounds overnight. The cells were stained with calcein AM, and the effect of the compounds on capillary tube formation was assessed using an inverted fluorescent microscope (Nikon). The reference compound used in this assay AVE-8063 is 3-amino-deoxycombretastatin A-4.

The target of data set [2] is T2, colchicine site on tubulin (biotinylated porcine tubulin) (Sus scrofa, UniProt P02550+P02554).
T2 construct: biotin (chemical label)
T2 sequence (P02554 whole entry): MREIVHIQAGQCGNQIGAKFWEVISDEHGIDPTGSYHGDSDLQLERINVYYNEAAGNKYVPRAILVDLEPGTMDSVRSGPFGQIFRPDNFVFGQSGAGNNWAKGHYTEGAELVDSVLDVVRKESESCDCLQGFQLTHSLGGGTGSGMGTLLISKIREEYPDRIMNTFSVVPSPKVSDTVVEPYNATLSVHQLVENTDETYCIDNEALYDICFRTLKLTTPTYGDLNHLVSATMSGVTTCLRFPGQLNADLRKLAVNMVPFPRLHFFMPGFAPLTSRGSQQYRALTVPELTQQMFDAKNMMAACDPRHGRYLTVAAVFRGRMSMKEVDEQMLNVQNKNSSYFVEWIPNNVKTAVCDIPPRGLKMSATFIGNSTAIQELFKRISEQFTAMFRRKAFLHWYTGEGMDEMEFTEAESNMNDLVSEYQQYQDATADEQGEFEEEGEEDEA
T2 sequence (P02550 whole entry): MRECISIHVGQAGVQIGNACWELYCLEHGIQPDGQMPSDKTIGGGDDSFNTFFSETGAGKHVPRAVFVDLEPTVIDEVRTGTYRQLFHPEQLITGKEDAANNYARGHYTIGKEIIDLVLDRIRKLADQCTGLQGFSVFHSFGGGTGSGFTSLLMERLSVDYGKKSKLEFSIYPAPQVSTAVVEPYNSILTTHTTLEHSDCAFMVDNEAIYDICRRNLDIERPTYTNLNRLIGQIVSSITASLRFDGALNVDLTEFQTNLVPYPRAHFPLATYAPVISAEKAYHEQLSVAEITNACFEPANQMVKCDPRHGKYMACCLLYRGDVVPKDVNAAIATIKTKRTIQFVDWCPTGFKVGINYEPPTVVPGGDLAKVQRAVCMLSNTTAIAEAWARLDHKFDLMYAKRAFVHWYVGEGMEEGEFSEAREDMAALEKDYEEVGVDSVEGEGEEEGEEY
Nature of the data set: Tubulin displacement assay (3H-colchicine radioligand binding, SPA). Here is the method: The assay was developped following the method published by Tahir et al. (2001) and others using biotinylated porcine tubulin captured to streptavidin coated yttrium silicate scintillation proximity assay (YSi SPA) beads in a PIPES/EGTA/MgCl2/GTP buffer. […] IC50s were determined using GraphPad Prism Version 5.01 and the sigmoidal dose response with variable slope curve fit.

The test system of a further data set is HUVEC. Nature of the data set: Pre-established vessels disruption (capillary tubes on Matrigel). The format is cell-based. The conditions noted are these: HUVEC tubes formed 5 hours, then compounds overnight. Here is the method:
To explore the effect of the compounds on pre-established vasculature, twenty thousand cells (HUVEC) were seeded and incubated over Matrigel for 5 hours to allow the capillary tubes to form. Then, compounds were added and incubated overnight. The disappearance of existing vasculature was monitored with fluorescent microscopy.

For a further data set, the system named is K562 cell line. Nature of the data set: MTT assay: cytotoxicity against the K562 cell line. The format is cell-based. The note with it: K562 cells, 72 h, growth inhibition. In short, it runs like this:
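Fifteen thousand K562 cells per well were exposed in triplicate to a compound dilution series for 72 h at 37 °C, 5% CO2. Viability was measured by MTT absorbance at 550 nm relative to untreated control, and IC50 was obtained by nonlinear regression.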
On the technique in general: Tetrazolium assays rely on reduction of a dye to a coloured formazan, in cell work by metabolically active cells.

In the next data set the test system is blood flow. The note with it: animal studies, cited from earlier work.
For data set [3] the following is noted: phase 1 studies, cited from earlier work.
The mark [4] stands for this setting: Homo sapiens, HUVEC on Matrigel, compounds overnight, read-out: Neovessels Formation Inhibition Number of Branch Junctions IC50.
[5] abbreviates: Homo sapiens, HUVEC on Matrigel, compounds overnight, read-out: Neovessels Formation Inhibition Total Tubule Length IC50.
The mark [6] stands for this setting: competition with 50 nM [3H]-colchicine, 4 h at 37° C., read-out: IC50.
Setting [7] is: Homo sapiens, read-out: Pre-established Vessels Disruption Number of Branch Junctions IC50.
The mark [8] stands for this setting: Homo sapiens, read-out: Pre-established Vessels Disruption Total Tubule Length IC50.
The mark [9] stands for this setting: HUVEC on Matrigel, compounds overnight, read-out: Neovessels Formation Inhibition Number of Branch Junctions IC50.
Where [10] appears, read: HUVEC on Matrigel, compounds overnight, read-out: Neovessels Formation Inhibition Total Tubule Length IC50.
Setting [11] is: read-out: Pre-established Vessels Disruption Number of Branch Junctions IC50.
The mark [12] stands for this setting: read-out: Pre-established Vessels Disruption Total Tubule Length IC50.

Counter-ions that a name gives are not always drawn. Like-named read-outs stand apart in the source and are kept apart here.

T1 sequence (P02554 whole entry): as the sequence (P02554 whole entry) above
T1 sequence (P02550 whole entry): as the sequence (P02550 whole entry) above

What is called inhibition is the percentage by which the read-out fell short of the control. By IC50 is commonly meant the concentration that inhibits the measured activity by half. Regarding `CCOc1ccc2c(C(=O)c3cc(OC)c(OCC)c(OC)c3)cncc2c1OS(N)(=O)=O` [Compound 57, 7-Ethoxy-4-(4-ethoxy-3,5-dimethoxybenzoyl)isoquinolin-8-yl sulfamate], the inhibition at 5 µM on purified tubulin amounted to 17%. The IC50 in data set [1] (setting [4]) is 2.65 nM; in data set [1] (setting [5]) it was 3.97 nM; in data set [2] (setting [6]), 91.9 nM; in the data set with HUVEC (setting [7]), 4.37 nM; in the data set on HUVEC (setting [8]), 6.72 nM; in the data set on K562 cell line (Homo sapiens), 2.69 nM.
For `CCOc1ccc2c(C(=O)c3cc(OC)c(OC)c(OC)c3)cncc2c1OC(C)=O` [Compound 96, 7-Ethoxy-4-(3,4,5-trimethoxybenzoyl)isoquinolin-8-yl acetate], the inhibition at 5 µM on purified tubulin is 54.5%. Moreover, the IC50 in data set [1] (setting [4]) stood at 5.07 nM; in data set [1] (setting [5]), 8.1 nM; in data set [2] (setting [6]), 3300 nM; in the data set on HUVEC (setting [7]) it was 9.14 nM; with HUVEC (setting [8]), 15.3 nM; with K562 cell line (Homo sapiens) it was 5.85 nM.
With `COc1ccc(/C=C\c2cc(OC)c(OC)c(OC)c2)cc1OP(=O)([O-])[O-].[Na+].[Na+]` [CA4P, CA-4 disodium phosphate], the “blood flow decrease in heart, kidney, and intestine” value in the data set with blood flow (heart, kidney, intestine) was “no significant decrease”. Further, in the data set on blood flow (spleen, skeletal muscle, brain), the “blood flow reduction in spleen, skeletal muscle, and brain” value is recorded as “less than 7 fold”. Besides, the “blood flow reduction in the tumor” value in the data set with blood flow (tumor) is recorded as 100 fold. Also, the dose-limiting toxicities result in data set [3] (administered intravenously) was “dyspnea, neurological disturbances (syncope, motor neuropathy, ataxia), and cardiac and intestinal ischemia”. Further, in data set [3], the “Responses seen in” value was “thyroid cancer, sarcoma, and adrenocortical carcinoma”.
As for `CCOc1ccc2c(C(=O)c3cc(OC)c(OCC)c(OC)c3)cncc2c1NS(N)(=O)=O` [Compound 59, 7-Ethoxy-4-(4-ethoxy-3,5-dimethoxybenzoyl)isoquinolin-8-yl sulfamide], the inhibition at 5 µM on purified tubulin turned out to be 21.5%. Moreover, the 50% inhibitory concentration (IC50) in data set [1] (setting [4]) is 8.32 nM; in data set [1] (setting [5]), 25.2 nM; in data set [2] (setting [6]), 745 nM; with HUVEC (setting [7]), 27.1 nM; in the data set with HUVEC (setting [8]) it was 38.2 nM; in the data set with K562 cell line (Homo sapiens), 7.04 nM.
As for `CCOc1ccc2c(Cc3cc(OC)c(OC)c(OC)c3)cncc2c1N` [Compound 3, 7-Ethoxy-4-(3,4,5-trimethoxybenzyl)isoquinolin-8-amine dihydrochloride], the inhibition at 5 µM on purified tubulin turned out to be 76.6%. The IC50 came to 1040 nM against purified tubulin; 15.3 nM in data set [1] (setting [4]); 21.8 nM in data set [1] (setting [5]); 170 nM in data set [2] (setting [6]); 14.9 nM in the data set on HUVEC (setting [7]); 45.6 nM with HUVEC (setting [8]). The same compound registered an IC50 in the data set with K562 cell line (Homo sapiens) of 10.7 nM.
Consider `CCOc1ccc2c(C(=O)c3cc(OC)c(OC)c(OC)c3)cncc2c1OP(=O)(O)O` [Compound 98, 7-ethoxy-4-(3,4,5-trimethoxybenzoyl)isoquinolin-8-yl disodium phosphate], for which, at purified tubulin, the inhibition at 5 µM worked out at 49%. Further, the IC50 in data set [1] (Homo sapiens, HUVEC, read-out: Neovessels Formation Inhibition Number of Branch Junctions IC50 (nM)) came to 3.68 nM; in data set [1] (Homo sapiens, HUVEC, read-out: Neovessels Formation Inhibition Total Tubule Length IC50 (nM)) it was 6.5 nM; in data set [2], 121 nM; in the data set on HUVEC (setting [7]) it was 9.22 nM; in the data set on HUVEC (setting [8]) it was 15.1 nM; with K562 cell line (Homo sapiens), 7.57 nM.
With `CCOc1ccc2c(C(=O)c3cc(OC)c(OC)c(OC)c3)cncc2c1O` [Compound 97, (7-Ethoxy-8-hydroxyisoquinolin-4-yl)(3,4,5-trimethoxyphenyl)methanone hydrochloride], the inhibition at 5 µM on purified tubulin was 4%. Further, the IC50 came out at 4.04 nM in data set [1] (setting [4]); 5.52 nM in data set [1] (setting [5]); 41.4 nM in data set [2] (setting [6]); 6.65 nM with HUVEC (setting [7]); 8.82 nM in the data set on HUVEC (setting [8]); 4.86 nM in the data set on K562 cell line (Homo sapiens).
Regarding `CCCOc1c(OC)cc(C(=O)c2cncc3c(O)c(OCC)ccc23)cc1OC` [Compound 67, (3,5-Dimethoxy-4-propoxyphenyl)(7-ethoxy-8-hydroxyisoquinolin-4-yl)methanone hydrochloride], the inhibition at 5 µM at purified tubulin was determined as 10%. Also, the IC50 in data set [1] (setting [4]) is 3.84 nM; in data set [1] (setting [5]) it was 4.8 nM; in data set [2] (setting [6]) it was 38.7 nM; in the data set with HUVEC (setting [7]), 9.18 nM; in the data set with HUVEC (setting [8]), 12.6 nM; with K562 cell line (Homo sapiens) it was 4.64 nM.
Regarding `COc1cc(C(=O)c2c(C)oc3c(O)c(OC)ccc23)cc(OC)c1OC` [BNC105, reference compound], the “% Inhibition of tubulin polymerization at 5 μM” value (“% Inhibition” below) on purified tubulin is reported as 64.75%. In addition, the IC50 at purified tubulin is 1780 nM; in data set [1] (setting [9]) it was 1.76 nM; in data set [1] (setting [10]) it was 2.49 nM; in the data set with HUVEC (setting [11]), 5.2 nM; in the data set on HUVEC (setting [12]), 6.37 nM; in the data set on K562 cell line it was 0.55 nM.
Turning to `C=CCOc1c(OC)cc(Cc2cncc3c(O)c(OCC)ccc23)cc1OC` [Compound 32, 4-(4-(Allyloxy)-3,5-dimethoxybenzyl)-7-ethoxyisoquinolin-8-ol hydrochloride], the inhibition at 5 µM at purified tubulin is 63.4%. The IC50 on purified tubulin was determined as 1500 nM; in data set [1] (setting [4]), 12.4 nM; in data set [1] (setting [5]) it was 21.9 nM; in the data set with HUVEC (setting [7]) it was 20 nM; with HUVEC (setting [8]), 48.8 nM; in the data set with K562 cell line (Homo sapiens), 21.5 nM.
With `CCCOc1c(OC)cc(Cc2cncc3c(N)c(OCC)ccc23)cc1OC` [Compound 64, 4-(3,5-Dimethoxy-4-propoxybenzyl)-7-ethoxyisoquinolin-8-amine dihydrochloride], the inhibition at 5 µM on purified tubulin came out at 79.5%. Further, the IC50 was found to be 900 nM on purified tubulin; 7.02 nM in data set [1] (setting [4]); 9.54 nM in data set [1] (setting [5]); 7.41 nM in the data set with HUVEC (setting [7]); 14.7 nM in the data set with HUVEC (setting [8]); 11.2 nM in the data set on K562 cell line (Homo sapiens).
Turning to `CCOc1ccc2c(Cc3cc(OC)c(OC)c(OC)c3)cncc2c1OS(N)(=O)=O` [Compound 21, 4-(3,4,5-Trimethoxybenzyl)-7-ethoxyisoquinolin-8-yl sulfamate hydrochloride], the inhibition at 5 µM at purified tubulin worked out at 65.8%. The half-maximal inhibitory concentration (IC50) at purified tubulin worked out at 1090 nM; in data set [1] (setting [4]), 47.3 nM; in data set [1] (setting [5]), 52.8 nM; in the data set on HUVEC (setting [7]), 26.7 nM; in the data set with HUVEC (setting [8]), 60.5 nM; with K562 cell line (Homo sapiens), 36.9 nM.
Turning to `CCOc1ccc2c(Cc3cc(OC)c(OC)c(OC)c3)cncc2c1O` [Compound 1, 4-(3,4,5-Trimethoxybenzyl)-7-ethoxyisoquinolin-8-ol hydrochloride], on purified tubulin, the inhibition at 5 µM was found to be 85%. The IC50 at purified tubulin amounted to 1190 nM; in data set [1] (setting [4]), 38.5 nM; in data set [1] (setting [5]), 54.5 nM; in data set [2] (setting [6]) it was 220 nM; in the data set on K562 cell line (Homo sapiens), 29.1 nM.
In the case of `COc1cc(Cc2cncc3c(OC)c(OC)ccc23)cc(OC)c1OC` [Compound 10, 4-(3,4,5-Trimethoxybenzyl)-7,8-dimethoxyisoquinoline hydrochloride], the IC50 stood at 3440 nM against purified tubulin, 1600 nM in data set [2] (setting [6]) and 283 nM in the data set with K562 cell line (Homo sapiens).
For `COc1cc(C(=O)c2c(C)oc3c(OP(=O)([O-])O)c(OC)ccc23)cc(OC)c1OC.[Na+]` [BNC105P, reference compound], the “% Inhibition” value on purified tubulin came to 39.00%. The IC50 against purified tubulin was 4100 nM; in data set [1] (setting [9]) it was 0.44 nM; in data set [1] (setting [10]), 1.53 nM; in the data set on HUVEC (setting [11]), 5.83 nM; with HUVEC (setting [12]), 7.37 nM; with K562 cell line, 17.3 nM.
`COc1ccc(/C=C\c2cc(OC)c(OC)c(OC)c2)cc1N` [AVE8063, 3-amino-deoxycombretastatin A-4, reference compound]: the “% Inhibition” value at purified tubulin was found to be 71.29%. Moreover, the IC50 at purified tubulin was 1070 nM; in data set [1] (setting [9]) it was 3.12 nM; in data set [1] (setting [10]), 5.33 nM; in the data set with HUVEC (setting [11]), 5.72 nM; in the data set on HUVEC (setting [12]) it was 7.74 nM; in the data set on K562 cell line, 2.71 nM.

The values above are taken from patent publication US20130131018A1, “SUBSTITUTED ISOQUINOLINES AND THEIR USE AS TUBULIN POLYMERIZATION INHIBITORS” (Exonhit S.A., priority 2010, published 2013).
